Experimental data as given in ChEMBL document CHEMBL1201862, “PubChem BioAssay data set” (2004).
Calls of active or inactive are those of the source.

Columns and labels:
[1] = inhibitors of non-replicating M. tuberculosis, dose response, luciferase, dry powder (AID 651619); type: functional; conditions: Mycobacterium tuberculosis
[2] = inhibitors of non-replicating M. tuberculosis, dose response, luciferase, dry powder (AID 651620); type: functional; conditions: Mycobacterium tuberculosis
[3] = molecular target: COUP transcription factor 2 (Homo sapiens, UniProt P24468); test: Luminescence-based cell-based high throughput dose response assay to identify inhibitors of COUP-TFII (NR2F2).; type: functional;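 also: HEK293 cells transiently cotransfected with COUP-TFII expression vector and reporter; luciferase reporter luminescence driven by COUP-TFII from the pX2-168 reporter plasmid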
Chain of COUP transcription factor 2 (P24468 whole entry): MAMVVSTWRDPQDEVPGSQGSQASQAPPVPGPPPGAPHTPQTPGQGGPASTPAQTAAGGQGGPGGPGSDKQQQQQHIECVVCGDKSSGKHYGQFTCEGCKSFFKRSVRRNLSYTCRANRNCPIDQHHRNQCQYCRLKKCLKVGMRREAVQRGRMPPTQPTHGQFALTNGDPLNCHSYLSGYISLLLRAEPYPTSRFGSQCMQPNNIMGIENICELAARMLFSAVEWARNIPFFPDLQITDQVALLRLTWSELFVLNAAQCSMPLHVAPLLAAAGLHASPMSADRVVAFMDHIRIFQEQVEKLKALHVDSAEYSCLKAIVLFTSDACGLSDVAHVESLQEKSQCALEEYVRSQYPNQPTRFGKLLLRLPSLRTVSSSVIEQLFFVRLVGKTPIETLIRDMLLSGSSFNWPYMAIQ

[4] = HEK293 cell viability loss – plate reader, cherry-pick, cytotoxicity control, dose response (AID 651899); type: functional, cell-based
[5] = HEK293 Cytotoxicity Assay Measured in Cell-Based System Using Plate Reader - 7071-01_Inhibitor_Dose_CherryPick_Activity_Set2.; type: functional
[6] = molecular target: Adenosylmethionine-8-amino-7-oxononanoate aminotransferase (Mycobacterium tuberculosis, UniProt P9WQ81); test: Mycobacterium tuberculosis BioA enzyme inhibitor Measured in Biochemical System Using Plate Reader - 2163-02_Inhibitor_Dose_CherryPick_Activity.; type: functional, Mycobacterium tuberculosis UT205
Chain of Adenosylmethionine-8-amino-7-oxononanoate aminotransferase (P9WQ81 whole entry): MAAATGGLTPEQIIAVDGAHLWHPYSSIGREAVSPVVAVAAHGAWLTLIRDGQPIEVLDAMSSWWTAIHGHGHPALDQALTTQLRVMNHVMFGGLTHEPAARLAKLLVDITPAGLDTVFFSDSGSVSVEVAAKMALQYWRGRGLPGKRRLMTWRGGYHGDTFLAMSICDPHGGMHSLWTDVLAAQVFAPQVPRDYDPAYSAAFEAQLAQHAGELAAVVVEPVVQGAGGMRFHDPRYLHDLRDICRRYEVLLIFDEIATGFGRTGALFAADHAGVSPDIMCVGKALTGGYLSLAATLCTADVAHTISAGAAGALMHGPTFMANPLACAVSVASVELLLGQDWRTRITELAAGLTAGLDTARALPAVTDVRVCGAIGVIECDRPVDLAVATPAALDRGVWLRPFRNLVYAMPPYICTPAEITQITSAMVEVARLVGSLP

HEK293 = test: viability loss in HEK293T cells – cell-based, ATP luminescence, cherry-pick samples, cytotoxicity control, dose response (AID 687005); type: functional; conditions: Homo sapiens;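 also: cells exposed to compound for 48 hours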
[7] = cytotoxicity in MITF-independent A375 cells – cell-based, CellTiter-Glo luminescence, dry powder, set 4, counter-screen for MITF inhibitor project, dose response (AID 624364); type: functional; conditions: A-375;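 also: A375 melanoma cells are MITF independent so this is a counter screen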

[N-]=[N+]=NCCOCCNC(=O)c1ccc(C[S+]([O-])c2nnc(-c3ccc(Cl)cc3)o2)nc1 (stereo not drawn)
IC90 [1]: 16 µM (active)
IC90 [2]: 16 µM (active)

C=CCC1(CC=C)CCCN1C(=O)c1cc(COc2ccc(-n3cncn3)cc2)on1
IC50 [3]: 7.88 µM (active)

CC(=O)c1ccc(N2CCN(C(=O)Cc3cccs3)CC2)cc1
AC50 [4]: 3.82 µM (active)
AC50 [5]: > 52 µM (inactive)
AC50 [6]: 11.6 µM (active)
AC50 (HEK293): > 52 µM (inactive)

C=CCNC1=C(NC(=O)c2ccccc2)C(=O)c2ccccc2C1=O
AC50 [7]: > 70 µM (inactive)
